What was measured:
hepcidin [1] = assay: Turpentine-induced hepatic hepcidin expression time course; assay type: in vivo, C57BL/6 mice; conditions: 3 mg/kg IP every 12 h; compared to vehicle; FIG. 13
LDL-R-deficient mice = assay: Vascular calcification in high-fat diet fed LDL-R-deficient mice, Osteosense probe imaging of aortas; assay type: in vivo; conditions: 16 weeks high fat diet; compound 13 mg/kg IP twice daily; FIG. 24
Experimental: Adult (10 week old) LDL-R-deficient mice on a C57BL/6 background were subjected to a high-lipid atherogenic diet, concurrently with vehicle treatment or drug treatment (compound 13 mg/kg IP twice daily) started simultaneously with atherogenic diet. After 16 weeks of high fat diet and drug treatment, aortas, carotids, and left ventricular outflow tract were harvested and prepared as appropriate for histochemical staining or immunohistological staining, by en face mounting and fixation, or for paraffin embedded tissue sections for histology. To analyze early osteogenesis (as a precursor to calcification), mice were injected intravenously with Osteosense probe (VisEn) 24 hours prior to harvest, and harvested aortas were rinsed with phosphate buffered saline. Visualization of Osteosense probe was accomplished by near-IR fluorescence ([…]) using a LICOR laser scanner. This technique readily detected signal in aortas obtained from high-fat diet LDL-R-deficient mice treated with vehicle control (e, f, and g), while relatively little background signal was obtained in wild-type mice given a normal diet (a, b). Non-fluorescent imaging of wild-type aortas is also depicted (c, d).

[2] = tested on: turpentine-challenged C57BL/6 mice; conditions: 3 mg/kg ip every 12 h, weekly turpentine for 3 weeks
Experimental: To model the anemia of inflammation, C57BL/6 mice were studied in which chronic inflammation was induced by weekly subcutaneous injections of turpentine.
Mice received a subcutaneous injection of 100 μL turpentine weekly for 3 weeks. Compound 13 or vehicle (3 mg/kg) was administered ip beginning with the first turpentine injection and every 12 h thereafter. Vehicle treated mice without turpentine injection were studied as controls. One week after the final turpentine dose, blood was drawn for Hb levels, mean corpuscular volume (MCV), and absolute neutrophil counts.

hepcidin [3] = assay: Hepatic hepcidin expression in the steady state after 30 days treatment; assay type: in vivo, C57BL/6 mice; conditions: 3 mg/kg/d IP for 30 days; FIG. 16
Experimental: Ten-week-old male C57BL/6 mice fed a normal iron replete diet were treated chronically with compound 13 (3 mg/kg/d IP) or vehicle for 30 days, and hepatic hepcidin mRNA levels were measured by quantitative RT-PCR.

[4] = Microsomal stability in pooled mouse liver microsomes; assay type: in vitro ADME; conditions: 0.5 mg/mL microsome protein, 1 mM NADPH
Experimental: Test compound (3 μM final concentration) along with 0.5 mg/mL microsome protein and 1 mM NADPH was incubated for 0, 5, 15, 30 and 60 min. Incubation of test compound and microsomes in the absence of NADPH served as a negative control. The samples were quenched with methanol and centrifuged for 20 min at 2500 rpm to precipitate proteins. Sample supernatants were analyzed (N=3) by LC/MS. The ln peak area ratio (compound peak area/internal standard peak area) was plotted against time and the slope of the line determined to give the elimination rate constant [k=(−1)(slope)]. The half life (t1/2 in minutes) and the in vitro intrinsic clearance (CLint in μL/min/mg protein) values were calculated according to the following equations, where V=incubation volume in μL/mg protein: […]

C57BL/6 wild-type mice = assay: 30-day treatment of wild-type mice, circulating blood cell lineages; assay type: in vivo, C57BL/6 mice
[5] = tested on: turpentine-treated C57BL/6 mice; assay: Established turpentine-induced anemia of inflammation (rescue); assay type: in vivo
Experimental: After the establishment of anemia, treatment with either vehicle or compound 13 (3 mg/kg/d IP) is begun concurrently with an additional 3 weeks of weekly turpentine injections, to assess the potential for rescuing established turpentine-induced anemia of inflammation. […] Shaded areas indicate normative values in C57BL/6 mice for each parameter.

hepcidin [6] = assay: Pseudomonas aeruginosa-induced hepcidin expression in zebrafish embryos; assay type: in vivo; conditions: 6 μM; 5 h after PsA injection; RT-qPCR; FIG. 6
Source text: The following describes the development an in vivo model of inflammation-induced hepcidin expression that is amenable to facile genetic and pharmacological manipulation. The zebrafish is an attractive organism because it enables rapid knockdown of gene function via morpholino oligonucleotides and because it is highly amenable to pharmacological manipulation. Live Pseudomonas aeruginosa (PsA) were microinjected into the yolk of three-day-old zebrafish to induce a rapid and robust inflammatory response. It was determined that injection of bacteria induces robust expression of inflammatory markers. Embryos were injected with 5000 live PsA bacteria or phosphate PBS at 48 hpf and harvested 5 h later. TNFα, serum amyloid A (SAA), IL-1β, and IL-11α mRNA levels were measured by RT-qPCR (FIG. 5; *P<0.001 vs PBS, #P<0.002 vs. PBS). […] Next, it was examined whether the inflammatory response evoked by PsA in zebrafish is accompanied by induction of hepcidin.

[7] = 3 mg/kg/d IP for 30 days, average (n = 4)

## c1ccc2c(-c3cnn4cc(-c5ccc(N6CCNCC6)cc5)cnc34)ccnc2c1 [Compound 13, 4-[6-(4-piperazin-1-ylphenyl)pyrazolo[1,5-a]pyrimidin-3-yl]quinoline]
Hepcidin [1]
  hepatic hepcidin elevation after turpentine: effectively suppressed hepcidin elevation at 24-96 hours
LDL-R-deficient mice
  Osteosense near-IR fluorescence of aortas: less intense than that of vehicle-treated controls
[2]; FIG. 10
  hemoglobin (Hb) levels: prevented the decline in Hb levels and MCV
[2]; FIG. 11
  mean corpuscular volume (MCV): prevented the decline in Hb levels and MCV
[2]; FIG. 12
  absolute neutrophil counts: did not affect the increase in absolute neutrophil counts
Hepcidin [3]
  basal hepatic hepcidin mRNA levels relative to vehicle-treated mice: 40%
[4]; read-out: half-life (t1/2) in mouse liver microsomes
  half-life at 3 μM: 82 min
[4]; read-out: intrinsic clearance (CLint) in mouse liver microsomes
  microsomal CLint at 3 μM: 16.9 ± 5.6 µL/min/mg
C57BL/6 wild-type mice; 3 mg/kg/d IP for 30 days
  myelosuppression, thrombocytopenia, anemia or erythrocytosis: did not appear to cause myelosuppression, thrombocytopenia, anemia or conversely erythrocytosis
C57BL/6 wild-type mice; [7]
  % Lymphocyte: 63.1%
  % Monocyte: 3.8%
  % Neutrophil: 30.8%
  % Reticulocyte: 2.6%
  Hb: 11.9 g/dL
  Hct: 43.8%
  MCHC: 27.3 g/dL
  MCV: 48.5 fL
  Platelet count: 8.305e+11 L⁻¹
  RBC: 9e+12 L⁻¹
  RDW: 18.6%
  Total WBC: 1.9e+09 L⁻¹
C57BL/6 wild-type mice; 30 days treatment, compared to vehicle-treated controls, data not shown
  serum iron in the steady state: did not cause an elevation of serum iron
[5]; 3 mg/kg/d IP for final 3 weeks of 6 weeks turpentine, FIG. 17
  blood hemoglobin: significant improvement
[5]; 3 mg/kg/d IP for final 3 weeks of 6 weeks turpentine, FIG. 18
  hematocrit: restoration of hematocrit to values within the normal range
[5]; 3 mg/kg/d IP for final 3 weeks of 6 weeks turpentine, FIG. 19
  mean corpuscular volume (MCV): restores MCV to low-normal levels
[5]; FIG. 21
  neutrophilia: induced neutrophilia regardless of treatment with vehicle or compound 13
[5]; cotreatment for final 3 weeks of 6 weeks turpentine, FIG. 20
  reticulocyte counts: restores high-normal reticulocyte counts
Hepcidin [6]
  PsA-induced induction of hepcidin mRNA: almost completely blocked

Source: patent US9045484B2, “Inhibitors of the BMP signaling pathway” (The Brigham and Women's Hospital, Inc., priority 2008, dated 2015)
